# Molecular target: T1, FAK enzyme (6 His tagged kinase domain, GenBank NP—722560) (Homo sapiens, UniProt Q05397)
# T1 construct: 6 His; made in house; host or cells: insect cell culture infected with baculovirus
# Assay: In vitro enzyme assay (a): sandwich ELISA of FAK tyrosine kinase activity on polyGAT peptide, TMB colorimetric endpoint
# Format: biochemical
# Conditions: in vitro Enzyme Assay test (a); ATP at Km; geometric mean of n > 1 measurements, values marked * tested once
# Summary of the method: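 Recombinant His-tagged FAK kinase domain (baculovirus/insect cells) phosphorylated plate-coated polyGAT with ATP at Km, MgCl2/MnCl2, HEPES pH 7.4, 25 min at room temperature before EDTA stop. Phosphotyrosine detected by HRP-4G10 antibody and TMB absorbance at 450 nm; IC50 from 12-point curve anchored to DMSO and staurosporine controls.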
# T1 sequence (Q05397 422-680 limits assumed): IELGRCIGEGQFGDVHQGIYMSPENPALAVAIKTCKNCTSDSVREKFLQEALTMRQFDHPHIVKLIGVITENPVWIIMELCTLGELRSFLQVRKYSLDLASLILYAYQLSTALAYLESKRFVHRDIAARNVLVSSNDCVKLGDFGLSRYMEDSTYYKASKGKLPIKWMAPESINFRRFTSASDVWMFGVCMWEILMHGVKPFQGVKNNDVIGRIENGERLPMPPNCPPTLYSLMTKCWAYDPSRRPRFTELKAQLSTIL
row,IC50 [nM],SMILES
1,204,"CN1CCc2cccc(Nc3cc(Nc4cnn(CC(=O)N5CCOCC5)c4)ncc3F)c2C1=O [Example 4.25, 8-[[5-fluoro-2-[[1-(2-morpholino-2-oxo-ethyl)pyrazol-4-yl]amino]-4-pyridyl]amino]-2-methyl-3,4-dihydroisoquinolin-1-one]"
2,199,"CN1CCN(C(=O)Cn2cc(Nc3cc(Nc4cccc5c4C(=O)N(C)CC5)c(F)cn3)cn2)CC1 [Example 4.26, 8-[[5-fluoro-2-[[1-[2-(4-methylpiperazin-1-yl)-2-oxo-ethyl]pyrazol-4-yl]amino]-4-pyridyl]amino]-2-methyl-3,4-dihydroisoquinolin-1-one]"
3,72,"CNC1CCN(C(=O)Cn2cc(Nc3cc(Nc4cccc5c4C(=O)N(C)CC5)c(F)cn3)cn2)C1 (stereo not shown) [Example 4.27, 8-[[5-Fluoro-2-[[1-[2-(3-methylaminopyrrolidin-1-yl)-2-oxo-ethyl]pyrazol-4-yl]amino]-4-pyridyl]amino]-2-methyl-3,4-dihydroisoquinolin-1-one]"
4,1120,"Cc1nn(C)cc1Nc1cc(Nc2ccc(N3CCN(C(C)C)CC3)c3c2C(=O)N(C)C3)c(F)cn1 [Example 4.28, 7-[[2-[(1,3-Dimethylpyrazol-4-yl)amino]-5-fluoro-4-pyridyl]amino]-4-(4-isopropylpiperazin-1-yl)-2-methyl-isoindolin-1-one]"
5,22700,"CN1CCN(c2[nH]nc(Nc3cc(Nc4cccc5c4C(=O)N(C)CC5)c(F)cn3)c2C#N)CC1 [Example 4.29, 3-[[5-Fluoro-4-[(2-methyl-1-oxo-3,4-dihydroisoquinolin-8-yl)amino]-2-pyridyl]amino]-5-(4-methylpiperazin-1-yl)-1H-pyrazole-4-carbonitrile]"
6,6,"Cc1nn(C)cc1Nc1cc(Nc2cccc3c2C(=O)N(C)CC3)c(C(F)(F)F)cn1 [Example 5.01, 8-[[2-[(1,3-dimethylpyrazol-4-yl)amino]-5-(trifluoromethyl)-4-pyridyl]amino]-2-methyl-3,4-dihydroisoquinolin-1-one]"
7,9,"CNC(=O)c1c(Nc2cc(Nc3cn(C)nc3C)ncc2C(F)(F)F)cccc1OC [Example 5.02, 2-[[2-[(1,3-dimethylpyrazol-4-yl)amino]-5-(trifluoromethyl)-4-pyridyl]amino]-6-methoxy-N-methyl-benzamide]"
8,6,"Cc1nn(C)cc1Nc1cc(Nc2cccc3c2C(=O)N(C)CCO3)c(C(F)(F)F)cn1 [Example 5.03, 6-[[2-[(1,3-dimethylpyrazol-4-yl)amino]-5-(trifluoromethyl)-4-pyridyl]amino]-4-methyl-2,3-dihydro-1,4-benzoxazepin-5-one]"
9,6,"CN1CCc2cccc(Nc3cc(Nc4ccnn4C)ncc3Cl)c2C1=O [Example 6.01, 8-[[5-chloro-2-[(2-methylpyrazol-3-yl)amino]-4-pyridyl]amino]-2-methyl-3,4-dihydroisoquinolin-1-one]"
10,7,"Cc1cc(Nc2cc(Nc3cccc4c3C(=O)N(C)CC4)c(Cl)cn2)n(C)n1 [Example 6.02, 8-[[5-chloro-2-[(2,5-dimethylpyrazol-3-yl)amino]-4-pyridyl]amino]-2-methyl-3,4-dihydroisoquinolin-1-one]"
11,5,"Cc1c(Nc2cc(Nc3cccc4c3C(=O)N(C)CC4)c(Cl)cn2)cnn1C [Example 6.03, 8-[[5-chloro-2-[(1,5-dimethylpyrazol-4-yl)amino]-4-pyridyl]amino]-2-methyl-3,4-dihydroisoquinolin-1-one]"
12,6,"CCn1cc(Nc2cc(Nc3cccc4c3C(=O)N(C)CC4)c(Cl)cn2)c(C)n1 [Example 6.04, 8-[[5-chloro-2-[(1-ethyl-3-methyl-pyrazol-4-yl)amino]-4-pyridyl]amino]-2-methyl-3,4-dihydroisoquinolin-1-one]"
13,10,"CN1CCc2cccc(Nc3cc(Nc4cc(C5CC5)nn4C)ncc3Cl)c2C1=O [Example 6.05, 8-[[5-chloro-2-[(5-cyclopropyl-2-methyl-pyrazol-3-yl)amino]-4-pyridyl]amino]-2-methyl-3,4-dihydroisoquinolin-1-one]"
14,4,"CCn1nccc1Nc1cc(Nc2cccc3c2C(=O)N(C)CC3)c(Cl)cn1 [Example 6.06, 8-[[5-chloro-2-[(2-ethylpyrazol-3-yl)amino]-4-pyridyl]amino]-2-methyl-3,4-dihydroisoquinolin-1-one]"
15,9,"CN1CCc2cccc(Nc3cc(Nc4ccn(C)n4)ncc3Cl)c2C1=O [Example 6.07, 8-[[5-chloro-2-[(1-methylpyrazol-3-yl)amino]-4-pyridyl]amino]-2-methyl-3,4-dihydroisoquinolin-1-one]"
16,5620,"CCc1nn(C(C)(C)C)c(Nc2cc(Nc3cccc4c3C(=O)N(C)CC4)c(Cl)cn2)c1C [Example 6.08, 8-[[2-[(2-tert-butyl-5-ethyl-4-methyl-pyrazol-3-yl)amino]-5-chloro-4-pyridyl]amino]-2-methyl-3,4-dihydroisoquinolin-1-one]"
17,71,"CC(C)Cn1cc(Nc2cc(Nc3cccc4c3C(=O)N(C)CC4)c(Cl)cn2)cn1 [Example 6.09, 8-[[5-chloro-2-[(1-isobutylpyrazol-4-yl)amino]-4-pyridyl]amino]-2-methyl-3,4-dihydroisoquinolin-1-one]"

row,IC50 [nM],SMILES
1,6,"CNC(=O)c1ccccc1Nc1cc(Nc2ccnn2C)ncc1C(F)(F)F [Example 8.01, N-methyl-2-[[2-[(2-methylpyrazol-3-yl)amino]-5-(trifluoromethyl)-4-pyridyl]amino]benzamide]"
2,8,"CNC(=O)c1ccccc1Nc1cc(Nc2cc(C)nn2C)ncc1C(F)(F)F [Example 8.02, 2-[[2-[(2,5-dimethylpyrazol-3-yl)amino]-5-(trifluoromethyl)-4-pyridyl]amino]-N-methyl-benzamide]"
3,6,"CNC(=O)c1ccccc1Nc1cc(Nc2cnn(C)c2C)ncc1C(F)(F)F [Example 8.03, 2-[[2-[(1,5-dimethylpyrazol-4-yl)amino]-5-(trifluoromethyl)-4-pyridyl]amino]-N-methyl-benzamide]"
4,6,"CCn1cc(Nc2cc(Nc3ccccc3C(=O)NC)c(C(F)(F)F)cn2)c(C)n1 [Example 8.04, 2-[[2-[(1-ethyl-3-methyl-pyrazol-4-yl)amino]-5-(trifluoromethyl)-4-pyridyl]amino]-N-methyl-benzamide]"
5,14,"CCn1cc(Nc2cc(Nc3ccccc3C(=O)NC)c(C(F)(F)F)cn2)cn1 [Example 8.05, 2-[[2-[(1-ethylpyrazol-4-yl)amino]-5-(trifluoromethyl)-4-pyridyl]amino]-N-methyl-benzamide]"
6,11,"CCn1ccc(Nc2cc(Nc3ccccc3C(=O)NC)c(C(F)(F)F)cn2)n1 [Example 8.06, 2-[[2-[(1-ethylpyrazol-3-yl)amino]-5-(trifluoromethyl)-4-pyridyl]amino]-N-methyl-benzamide]"
7,26,"CNC(=O)c1ccccc1Nc1cc(Nc2cc(C3CC3)nn2C)ncc1C(F)(F)F [Example 8.07, 2-[[2-[(5-cyclopropyl-2-methyl-pyrazol-3-yl)amino]-5-(trifluoromethyl)-4-pyridyl]amino]-N-methyl-benzamide]"
8,10,"CCn1nccc1Nc1cc(Nc2ccccc2C(=O)NC)c(C(F)(F)F)cn1 [Example 8.08, 2-[[2-[(2-ethylpyrazol-3-yl)amino]-5-(trifluoromethyl)-4-pyridyl]amino]-N-methyl-benzamide]"
9,69,"CNC(=O)c1ccccc1Nc1cc(Nc2cnn(CC(C)C)c2)ncc1C(F)(F)F [Example 8.09, 2-[[2-[(1-isobutylpyrazol-4-yl)amino]-5-(trifluoromethyl)-4-pyridyl]amino]-N-methyl-benzamide]"
10,13,"CNC(=O)c1ccccc1Nc1cc(Nc2c(C)nn(C)c2C)ncc1C(F)(F)F [Example 8.10, N-methyl-2-[[5-(trifluoromethyl)-2-[(1,3,5-trimethylpyrazol-4-yl)amino]-4-pyridyl]amino]benzamide]"
11,34,"CNC(=O)c1ccccc1Nc1cc(Nc2cnn(C(C)C)c2)ncc1C(F)(F)F [Example 8.11, 2-[[2-[(1-isopropylpyrazol-4-yl)amino]-5-(trifluoromethyl)-4-pyridyl]amino]-N-methyl-benzamide]"
12,18,"CNC(=O)c1ccccc1Nc1cc(Nc2cn(C)nc2C(F)(F)F)ncc1C(F)(F)F [Example 8.12, N-methyl-2-[[2-[[1-methyl-3-(trifluoromethyl)pyrazol-4-yl]amino]-5-(trifluoromethyl)-4-pyridyl]amino]benzamide]"
13,8,"CNC(=O)c1cc(OC)ccc1Nc1cc(Nc2cn(C)nc2C)ncc1C(F)(F)F [Example 10.01, 2-[[2-[(1,3-dimethylpyrazol-4-yl)amino]-5-(trifluoromethyl)-4-pyridyl]amino]-5-methoxy-N-methyl-benzamide]"
14,13,"CNC(=O)c1ccc(C)cc1Nc1cc(Nc2cn(C)nc2C)ncc1C(F)(F)F [Example 10.02, 2-[[2-[(1,3-Dimethylpyrazol-4-yl)amino]-5-(trifluoromethyl)-4-pyridyl]amino]-N,4-dimethyl-benzamide]"
15,2,"CNC(=O)c1cc(C)ccc1Nc1cc(Nc2cn(C)nc2C)ncc1C(F)(F)F [Example 10.03, 2-[[2-[(1,3-dimethylpyrazol-4-yl)amino]-5-(trifluoromethyl)-4-pyridyl]amino]-N,5-dimethyl-benzamide]"
16,53,"CNC(=O)c1ccc(OC)cc1Nc1cc(Nc2cn(C)nc2C)ncc1C(F)(F)F [Example 10.04, 2-[[2-[(1,3-dimethylpyrazol-4-yl)amino]-5-(trifluoromethyl)-4-pyridyl]amino]-4-methoxy-N-methyl-benzamide]"
17,9,"CNC(=O)c1ccc(F)cc1Nc1cc(Nc2cn(C)nc2C)ncc1C(F)(F)F [Example 10.05, 2-[[2-[(1,3-dimethylpyrazol-4-yl)amino]-5-(trifluoromethyl)-4-pyridyl]amino]-4-fluoro-N-methyl-benzamide]"

# Source: patent US8569298B2, “Pyridine compounds” (Astrazeneca AB, priority 2008, dated 2013)
